Assay results taken from patent US20240166693A1, “METHODS AND COMPOUNDS FOR MODULATING MYOTONIC DYSTROPY 1” (Design Therapeutics, Inc., priority 2020, published 2024).

What follows are compounds tested on Myotonic Dystrophy 1 affected patient fibroblasts (Coriell GM04602; 1600 CTG repeats) (assay: DM1 foci reduction assay (CAG10-Cy3 FISH, average foci per nucleus)). Conditions: Homo sapiens, Fibroblast, 48 h, read-out: Foci Reduction in Fibroblast EC50, 48 h (nM).
Format: cell-based
Procedure: DM1 foci reduction assay methods: Myotonic Dystrophy 1 affected patient fibroblasts (Coriell GM04602; 1600 CTG repeats) and wild type fibroblasts (Coriell GM07492; control line) were cultured separately in Gibco DMEM (1×)+4.5 g/L D-Glucose+L-Glutamine+110 mg/L Sodium Pyruvate, supplemented with 10% FBS and 1× Pen/Strep. Cells were maintained in incubator at 37° C. and 5% CO2 with media refresh every 48-72 hours.
At 90-95% confluency, both cell lines were harvested using Trypl-E then pelleted at 500×g for 5 minutes and were resuspended in media. DM1 fibroblasts were seeded in Agilent 96 well black plates at a density of 5,000 cells/well in 200 μL media; 8 wells were reserved for control fibroblasts. Plates were returned to incubator for 24 hours at 37° C. and 5% CO2.
Compounds were diluted from 10 mM stock to 1 mM in DMSO, then diluted once more to 6 μM (2× concentration) in media. Media was removed from all plates and cells were replenished with 100 μL media. Cells were treated in 8-point dose response, 1:3 fold dilution, 3 μM top dose via addition of 100 μL of 6 μM (2× concentration) compound to the 100 μL media with cells. Plates were returned to incubator for 48-hour time-course experiment at 37° C. and 5% CO2.
Following treatment, compounds were removed, and plates were washed with PBS, then cells were fixed in 75 μL 4% PFA solution for 20 minutes at room temperature. Plates were washed twice with PBS and twice with cold 70% ethanol before permeabilization with 250 μL cold 70% ethanol for 24-72 hours at −20° C.
After permeabilization, plates were washed once with a 30% formamide and 2×SSC buffer and rehydrated in that buffer for 15 minutes at room temperature. Cells were incubated overnight at 37° C. in 75 μL of a hybridization solution containing 30% formamide, 2×SSC, 25 mg/mL dextran sulfate, 2.5 mg/mL BSA, 0.2 μg/mL Herring sperm DNA, 2 mM vanadyl-ribonucleoside complex, and 5 nM CAG10-Cy3 probe.
Plates were washed once with 30% formamide in 2×SSC buffer, then twice with the buffer for 30 minutes at 37° C., 300 RPM in an incubating plate shaker. Cells were stained with 75 μL of 2.5 μg/mL DAPI in PBS for 5 minutes at room temperature. Plates were then washed twice with PBS and stored in 250 μL PBS. Plates were sealed with adhesive foil and wiped down with 70% ethanol.
Cells were imaged on a Cytation5 with a 20× objective sampling from 4 areas of each well. Nuclei were captured under DAPI channel and foci under RFP channel. Plates were analyzed on an average foci per nucleus per well basis.
`CCN(CC)CCCC[C@H](NC(=O)[C@H](CC(C)C)NC(=O)[C@H](C)NC(=O)[C@H](Cc1ccccc1)NC(=O)c1ccc(C(C)(C)C)cc1)C(=O)N[C@@H](CO)C(=O)Nc1ccc(OCCOCCOCCOCCOCCNC(=O)CCNC(=O)c2nc(NC(=O)c3cc(NC(=O)CCNC(=O)c4nc(NC(=O)CCCNC(=O)c5cc(NC(=O)c6nc(NC(=O)CCNC(=O)c7cc(NC(=O)c8nccn8C)cn7C)cn6C)cn5C)cn4C)cn3C)cn2C)cc1` [Compound 177] was tested, and the EC50 was less than 100 nM. `CCN(CC)CCCC[C@H](NC(=O)CCCCNC(=O)c1cnn(-c2ccc(C(C)(C)C)cc2)c1)C(=O)N[C@@H](CO)C(=O)NCCOCCOCCOCCOCCOCCNC(=O)CCNC(=O)c1nc(NC(=O)c2cc(NC(=O)CCNC(=O)c3nc(NC(=O)CCCNC(=O)c4cc(NC(=O)c5nc(NC(=O)CCNC(=O)c6cc(NC(=O)c7nccn7C)cn6C)cn5C)cn4C)cn3C)cn2C)cn1C` [Compound 151] showed an EC50 greater than 500 nM. For `CCCNC(=O)CCNC(=O)c1nc(NC(=O)c2nc(NC(=O)CCNC(=O)c3nc(NC(=O)[C@@H](CCNC(=O)c4cc(NC(=O)c5nc(NC(=O)CCNC(=O)c6cc(NC(=O)c7nccn7C)cn6C)cn5C)cn4C)NC(=O)COCCOCCOCCOCCOCCNC(=O)[C@H](CO)NC(=O)[C@H](CCCCN(CC)CC)NC(=O)[C@H](CC(C)C)NC(=O)[C@H](C)NC(=O)[C@H](Cc4ccccc4)NC(=O)c4ccc(C(C)(C)C)cc4)cn3C)cn2C)cn1C` [Compound 137], the EC50 was less than 100 nM. `CCN(CC)CCCC[C@H](NC(=O)[C@H](CC(C)C)NC(=O)[C@H](C)NC(=O)[C@H](Cc1ccccc1)NC(=O)c1ccc(C(C)(C)C)cc1)C(=O)N[C@@H](CO)C(=O)NCCOCCOCCOCCOCCOCCNC(=O)c1cc(NC(=O)c2nc(NC(=O)[C@@H](CCNC(=O)c3cc(NC(=O)c4nc(NC(=O)CCNC(=O)c5cc(NC(=O)c6nccn6C)cn5C)cn4C)cn3C)NC(C)=O)cn2C)cn1C` [Compound 112] showed an EC50 greater than 500 nM. Work on `CCN(CC)CCCC[C@H](NC(=O)[C@H](CC(C)C)NC(=O)[C@H](C)NC(=O)[C@H](Cc1ccccc1)NC(=O)c1ccc(C(C)(C)C)cc1)C(=O)N[C@@H](CO)C(=O)NCCOCCOCCOCCOCCNC(=O)CCNC(=O)c1nc(NC(=O)c2cc(NC(=O)CCNC(=O)c3nc(NC(=O)CCCNC(=O)c4cc(NC(=O)c5nc(NC(=O)CCNC(=O)c6cc(NC(=O)c7nccn7C)cn6C)cn5C)cn4C)cn3C)cn2C)cn1C` [Compound 72] yielded an EC50 of less than 100 nM. For `CCN(CC)CCCC[C@H](NC(=O)CNC(=O)CNC(=O)CNC(=O)c1ccc(C(C)(C)C)cc1)C(=O)N[C@@H](CO)C(=O)NCCOCCOCCOCCOCCOCCNC(=O)CCNC(=O)c1nc(NC(=O)c2cc(NC(=O)CCNC(=O)c3nc(NC(=O)CCCNC(=O)c4cc(NC(=O)c5nc(NC(=O)CCNC(=O)c6cc(NC(=O)c7nccn7C)cn6C)cn5C)cn4C)cn3C)cn2C)cn1C` [Compound 99], the EC50 was less than 100 nM. In the case of `CCN(CC)CCCC[C@H](NC(=O)[C@H](CC(C)C)NC(=O)[C@H](C)NC(=O)[C@H](Cc1ccccc1)NC(=O)c1ccc(C(C)(C)C)cc1)C(=O)N[C@@H](CO)C(=O)NCCOCCOCCOCCOCCOCCNC(=O)c1cc(NC(=O)c2nc(NC(=O)CCNC(=O)c3cc(NC(=O)c4nc(NC(=O)[C@H](CCNC(=O)c5cc(NC(=O)c6nc(NC(=O)CCNC(=O)c7cc(NC(=O)c8nccn8C)cn7C)cn6C)cn5C)NC(C)=O)cn4C)cn3C)cn2C)cn1C` [Compound 132], the EC50 is reported as less than 100 nM. `CCN(CC)CCCC[C@H](NC(=O)[C@H](CC(C)C)NC(=O)[C@H](C)NC(=O)[C@H](Cc1ccccc1)NC(=O)c1ccc(C(C)(C)C)cc1)C(=O)N[C@@H](CO)C(=O)N(C)CCOCCOCCNC(=O)CCNC(=O)c1nc(NC(=O)c2cc(NC(=O)CCNC(=O)c3nc(NC(=O)CCCNC(=O)c4cc(NC(=O)c5nc(NC(=O)CCNC(=O)c6cc(NC(=O)c7nccn7C)cn6C)cn5C)cn4C)cn3C)cn2C)cn1C` [Compound 75] was tested, and the EC50 was less than 100 nM. `CN(CCCC[C@H](NC(=O)COCCOCCNC(=O)c1ccc(C(C)(C)C)cc1)C(=O)N[C@@H](CO)C(=O)NCCOCCOCCOCCOCCOCCNC(=O)CCNC(=O)c1nc(NC(=O)c2cc(NC(=O)CCNC(=O)c3nc(NC(=O)CCCNC(=O)c4cc(NC(=O)c5nc(NC(=O)CCNC(=O)c6cc(NC(=O)c7nccn7C)cn6C)cn5C)cn4C)cn3C)cn2C)cn1C)C1CC2CCC1C2` (some centres unmarked) [Compound 68] showed an EC50 of 100 to 500 nM. Compound `CCN(CC)CCCC[C@H](NC(=O)[C@H](CC(C)C)NC(=O)[C@H](C)NC(=O)[C@H](Cc1ccccc1)NC(=O)c1ccc(C(C)(C)C)cc1)C(=O)N[C@@H](CO)C(=O)NCCOCCOCCOCCOCCOCCNC(=O)c1cc(NC(=O)c2nc(NC(=O)c3cc(NC(=O)[C@H](CCNC(=O)c4nc(NC(=O)CCNC(=O)c5cc(NC(=O)c6nccn6C)cn5C)cn4C)NC(C)=O)cn3C)cn2C)cn1C` [Compound 117] has an EC50 greater than 500 nM. `CCN(CC)CCCC[C@H](NC(=O)[C@H](CC(C)C)NC(=O)[C@H](C)NC(=O)[C@H](Cc1ccccc1)NC(=O)c1ccc(C(C)(C)C)cc1)C(=O)N[C@@H](CO)C(=O)N1CCC(N2CCN(CCOCCOCCOCCOCCNC(=O)CCNC(=O)c3nc(NC(=O)c4cc(NC(=O)CCNC(=O)c5nc(NC(=O)CCCNC(=O)c6cc(NC(=O)c7nc(NC(=O)CCNC(=O)c8cc(NC(=O)c9nccn9C)cn8C)cn7C)cn6C)cn5C)cn4C)cn3C)CC2)CC1` [Compound 184] showed an EC50 greater than 500 nM. `CCN(CC)CCCCC(NC(=O)[C@H](CC(C)C)NC(=O)C(C)NC(=O)[C@H](Cc1ccccc1)NC(=O)c1ccc(C(C)(C)C)cc1)C(=O)N[C@@H](CO)C(=O)NCCCN(C)CCCNC(=O)CCNC(=O)c1nc(NC(=O)c2cc(NC(=O)CCNC(=O)c3nc(NC(=O)CCCNC(=O)c4cc(NC(=O)c5nc(NC(=O)CCNC(=O)c6cc(NC(=O)c7nccn7C)cn6C)cn5C)cn4C)cn3C)cn2C)cn1C` (stereo in doubt) [Compound 71] showed an EC50 greater than 500 nM.

Same assay, conditions: Homo sapiens, Fibroblast; DM1 fibroblasts, 48 h treatment, 8-point dose response, 3 μM top dose; read-out: Foci Reduction in Fibroblast EC50, 48 h
Compound `CC(=O)c1cc(-c2ccccc2S(C)(=O)=O)c2cc(OCCOCCOCCNC(=O)CCNC(=O)c3nc(NC(=O)c4cc(NC(=O)CCNC(=O)c5nc(NC(=O)CCCNC(=O)c6cc(NC(=O)c7nc(NC(=O)CCNC(=O)c8cc(NC(=O)c9nccn9C)cn8C)cn7C)cn6C)cn5C)cn4C)cn3C)ccn12` [Compound 168] has an EC50 greater than 500 nM. With `CCCCN(Cc1ccc(C(=O)NO)cc1)C(=O)Nc1ccc(OCc2cn(CCOCCOCCNC(=O)CCNC(=O)c3nc(NC(=O)c4cc(NC(=O)CCNC(=O)c5nc(NC(=O)CCCNC(=O)c6cc(NC(=O)c7nc(NC(=O)CCNC(=O)c8cc(NC(=O)c9nccn9C)cn8C)cn7C)cn6C)cn5C)cn4C)cn3C)nn2)cc1` [Compound 127] the EC50 was greater than 500 nM. Work on `COc1c(OCCOCCOCCOCCOCCOCCNC(=O)CCNC(=O)c2nc(NC(=O)c3cc(NC(=O)CCNC(=O)c4nc(NC(=O)CCCNC(=O)c5cc(NC(=O)c6nc(NC(=O)CCNC(=O)c7cc(NC(=O)c8nccn8C)cn7C)cn6C)cn5C)cn4C)cn3C)cn2C)cccc1C(=O)N1CCN(C(=O)COc2cc(C)c(N)c(C)c2)CC1` [Compound 92] yielded an EC50 greater than 500 nM. In the case of `Cn1cc(NC(=O)c2nc(NC(=O)CCNC(=O)c3cc(NC(=O)c4nccn4C)cn3C)cn2C)cc1C(=O)NCCCC(=O)Nc1cn(C)c(C(=O)NCCC(=O)Nc2cc(C(=O)Nc3cn(C)c(C(=O)NCCC(=O)NCCOCCOCCOCCOCCOCCOCCn4cc(CCCCN(Cc5ccc(C(=O)NO)cc5)C(=O)Nc5ccccc5)nn4)n3)n(C)c2)n1` [Compound 126], the EC50 is reported as greater than 500 nM. Compound `Cn1cc(NC(=O)c2cc(NC(=O)c3nc(NC(=O)c4cc(NC(=O)[C@@H](N)CCNC(=O)c5nc(NC(=O)CCNC(=O)c6cc(NC(=O)c7nccn7C)cn6C)cn5C)cn4C)cn3C)cn2C)cc1C(=O)NCCOCCOCCOCCOCCOCCN1CCC(C(=O)Nc2ncc(SCc3ncc(C(C)(C)C)o3)s2)CC1` [Compound 120] has an EC50 greater than 500 nM. For `Cn1cc(CCn2c(CNCCOCCOCCNC(=O)CCNC(=O)c3nc(NC(=O)c4cc(NC(=O)CCNC(=O)c5nc(NC(=O)CCCNC(=O)c6cc(NC(=O)c7nc(NC(=O)CCNC(=O)c8cc(NC(=O)c9nccn9C)cn8C)cn7C)cn6C)cn5C)cn4C)cn3C)nc(-c3cnn(C)c3)c2-c2ccc(C#N)cc2)cn1` [Compound 171], the EC50 was greater than 500 nM. Work on `CC(=O)c1cc(-c2ccccc2S(C)(=O)=O)c2cc(OCCOCCOCCOCCOCCOCCOCCOCCOCCOCCOCCNC(=O)CCNC(=O)c3nc(NC(=O)c4cc(NC(=O)CCNC(=O)c5nc(NC(=O)CCCNC(=O)c6cc(NC(=O)c7nc(NC(=O)CCNC(=O)c8cc(NC(=O)c9nccn9C)cn8C)cn7C)cn6C)cn5C)cn4C)cn3C)ccn12` [Compound 170] yielded an EC50 greater than 500 nM. In the case of `CCN(CC)CCCCCC(=O)NCC(=O)NCCOCCOCCOCCOCCOCCNC(=O)CCNC(=O)c1nc(NC(=O)c2cc(NC(=O)CCNC(=O)c3nc(NC(=O)CCCNC(=O)c4cc(NC(=O)c5nc(NC(=O)CCNC(=O)c6cc(NC(=O)c7nccn7C)cn6C)cn5C)cn4C)cn3C)cn2C)cn1C` [Compound 158], the EC50 is reported as greater than 500 nM.
